Data as given in publication PMC8597734 (Antimicrobial Agents and Chemotherapy, 2021).
≈ marks a conversion by molar mass, not a printed value.

Assays:
[1] = system: M. abscessus subsp. bolletii M506; test: microbe, parasite or virus in culture; format: cell-based, Mycobacterium abscessus; details: Mycobacteroides abscessus, 72 h
[2] = system: M. abscessus subsp. abscessus K21; test: M. abscessus mouse infection model; format: in vivo, Mycobacterium abscessus; details: NOD SCID mice, intranasal infection, 400 mg/kg oral once daily for 10 days; statistically significant
Procedure: In vivo efficacy determinations were carried out as described previously, using 8-week-old female NOD.CB17-Prkdc^scid/NCrCrl (NOD SCID) mice (Charles River Laboratories) and the M. abscessus subsp. abscessus K21 strain ([48]). Briefly, anesthetized animals were infected by intranasal delivery of ∼10^6 CFU of M. abscessus subsp. abscessus K21. Acute infection was achieved within 1 day. Drugs or the vehicle control was administered to NOD SCID mice once daily for 10 consecutive days by oral gavage, starting from 1 day postinfection. Clarithromycin was formulated in 0.4% methyl cellulose–sterile water and administered at a dose of 250 mg/kg. […] EC/11716 was formulated in 0.4% methyl cellulose–sterile water and administered at 400 mg/kg. All mice were euthanized 24 h after the last dose (11 days postinfection), and their lungs and spleen were aseptically removed prior to homogenization. The bacterial load in these organs was determined by plating serial dilutions of the organ homogenates onto Middlebrook 7H11 agar (BD Difco) supplemented with 0.2% (vol/vol) glycerol and 10% (vol/vol) OADC. The agar plates were incubated for 5 days at 37°C prior to counting of colonies. All studies were conducted in accordance with the GSK Policy on the Care, Welfare and Treatment of Laboratory Animals and were reviewed the Institutional Animal Care and Use Committee either at GSK or by the ethical review process at the institution where the work was performed. All experiments involving live animals were approved by the Institutional Animal Care and Use Committee of the Center for Discovery and Innovation, Hackensack Meridian Health.

[3] = system: M. abscessus subsp. massiliense M111; test: microbe, parasite or virus in culture; format: cell-based, Mycobacterium abscessus; details: Mycobacteroides abscessus, 72 h
[4] = system: M. abscessus subsp. abscessus M404; test: microbe, parasite or virus in culture; format: cell-based, Mycobacterium abscessus; details: Mycobacteroides abscessus, 72 h
[5] = system: M. tuberculosis H37Rv ATCC 27294; test: microbe, parasite or virus in culture; format: cell-based; details: Mycobacterium tuberculosis, 168 h

**Q.** For `COc1cnc2ccc(=O)n(CCN3CCC(NCc4cnc(CO)c(Cl)c4)CC3)c2c1` [EC/11716], which MIC [1] is on record?
**A.** 5.2 µM (≈ 2.38 µg/mL)

**Q.** And the “reduction in lung CFU” value [2]?
**A.** 1 log

**Q.** And the MIC [3]?
**A.** 4.9 µM (≈ 2.24 µg/mL)

**Q.** And the MIC [4]?
**A.** 2.6 µM (≈ 1.19 µg/mL)

**Q.** And the MIC [5]?
**A.** 0.38 µM (≈ 0.174 µg/mL)
